What was measured:
HeLa cells [1] = assay: CFTR protein expression assay in HeLa cells (LNPs analogous to Example 4, lipid amine post-added); assay type: cell-based, Human; conditions: LNP prepared analogous to Example 4 with CFTR mRNA, vs buffer (PBS) control, 5 hr transfection, 24 hr incubation, N=4 wells
Method: Lipid nanoparticle compositions were prepared in a manner analogous to that in example 4. To evaluate LNP cellular uptake and protein expression In Vitro, HeLa cells from ATCC.org (ATCC CCL-2) was used. The cells were cultured in complete Minimum Essential Medium (MEM) and were plated in 96 well Cell Carrier Ultra plate with PDL coated surface (PerkinElmer) prior to running an experiment.
Buffer control (PBS) and LNPs encapsulating cystic fibrosis transmembrane conductance regulator (CFTR) mRNA were dosed with MEM media in the absence of serum (N=4 replicate wells). LNP transfected cells were incubated for 5 hr, followed by media removal and supplementation with complete MEM media. Cells were further incubated in complete MEM media overnight (24 hr).
Following 24 hr incubation, the cells were fixed with PFA and processed for immunofluorescence (IF) using an anti-CFTR rabbit monoclonal antibody. Briefly, the cells were permeabilized with 0.5% TX-100 for 10 min, blocked with 3% bovine serum albumin (BSA)+PBST for 1 hr at room temperature, and incubated with primary anti-CFTR monoclonal antibody overnight at 4° C. […] Cells were imaged using Opera Phoenix spinning disk confocal microscope (PerkinElmer), and CFTR protein expression was detected using the 488 nm channel. […]

[2] = CFTR mRNA nanoparticle biophysical data (DLS, Ribogreen); assay type: physicochemical
Method: Lipids were dissolved in ethanol at a concentration of 24 mg/mL and molar ratios of 49.0:11.2:39.3:0.5 (IL1:DSPC:cholesterol:PEG-DMG-2K) and mixed with the acidification buffer (45 mM acetate buffer at pH 4). The lipid solution and acidification buffer were mixed using a multi-inlet vortex mixer at a 3:7 volumetric ratio of lipid:buffer for mixer 1 and mixer 2 and a 1:3 volumetric ratio of lipid:buffer (25% ethanol) for mixer 3. After a 5 second residence time, the resulting nanoparticles were mixed with 55 mM sodium acetate at pH 5.6 at a volumetric ratio of 5:7 of nanoparticle: buffer. See Table 4a for mixing parameters. The resulting dilute nanoparticles were then buffer exchanged and concentrated using tangential flow filtration (TFF) into a final buffer containing 5 mM sodium acetate pH 5.0. Then a 70% sucrose solution in 5 mM acetate buffer at pH 5 is subsequently added.
The resulting nanoparticles at a lipid concentration of 7.33 mg/mL in 5 mM acetate (pH 5) and 75 g/L sucrose were mixed with mRNA (luciferase or CFTR) at a concentration of 0.625 mg/mL in 42.5 mM sodium acetate pH 5.0, with N: P of 4.93. The nanoparticle solution and […] were mixed using a multi-inlet vortex mixer at a 3:2 volumetric ratio of nanoparticle:mRNA. Once loaded with mRNA, these intermediate nanoparticles underwent a 300 second residence time prior addition of neutralization buffer containing 120 mM TRIS pH 8.12 at a volumetric ratio of 5:1 of nanoparticle: buffer.
For HeLa studies evaluating CFTR protein expression, the intermediate nanoparticle formulation (1 mL, 0.415 mg mRNA) is mixed with a buffer containing 20 mM TRIS (pH 7.5), 0.9 mg/mL PEG-DMG-2K and lipid amine SA52 (647.1 nmol) at a volumetric ratio of 6:1 of nanoparticle: buffer. The resulting nanoparticle suspension underwent concentration using a centrifugal filtration device (100 kDa molecular weight cut-off) and was diluted in running buffer (20 mM TRIS, 14.3 mM sodium acetate, and 32 g/L sucrose, pH 7.5) with a 300 mM NaCl solution to a final buffer matrix containing 70 mM NaCl. […]

HeLa cells [3] = assay: CFTR protein expression assay in HeLa cells (LNPs of Example 2, immunofluorescence); assay type: cell-based, Human; conditions: compared to buffer (PBS) control, 5 h transfection, 24 h incubation, N=4 wells
Method: Lipid nanoparticles were prepared using ethanol drop nanoprecipitation followed by solvent exchange into suitable aqueous buffer using dialysis. An exemplary lipid nanoparticle composition can be prepared by a process where lipids are dissolved in ethanol at a concentration of 12.5 mM and molar ratios of 33:15:11:39.5:1.5 (e.g., ionizable lipid:SA46:phospholipid:cholesterol:PL1). Lipid to mRNA is maintained at a N/P ratio of 4.9. Then mRNA is diluted with 25 mM sodium acetate (pH 5.0) and combined with the lipid mixture at a volume ratio of 3:1 (aqueous: ethanol). Resulting formulations are dialyzed against 20 mM tris/8% sucrose/70 mM sodium chloride (pH 7.4) at a volume of 300 times that of the primary product using Slide-A-Lyzer dialysis cassettes (Thermo Scientific, Rockford, IL, USA) with a molecular cutoff of 10 KDa for at least 18 h. The first dialysis is carried out at room temperature in a digital orbital shaker (VWR, Radnor, PA, USA) at 85 rpm for 3 h and then dialyzed overnight at 4° C. Formulations are concentrated using Amicon ultra-centrifugal filters (EMD Millipore, Billerica, MA, USA), passed through a 0.22-μm filter and stored at 4° C. until use. Lipid nanoparticle solutions are typically adjusted to specific mRNA concentrations between 0.1 and 1 mg/mL. LNPs were prepared according to Example 2. To evaluate LNP cellular uptake and protein expression in vitro, HeLa cells from ATCC.org (ATCC CCL-2) are used. The cells are cultured in complete Minimum Essential Medium (MEM) and are plated in 96 well Cell Carrier Ultra plate with PDL coated surface (PerkinElmer) prior to running an experiment. Buffer control (PBS) and LNPs encapsulating cystic fibrosis transmembrane conductance regulator (CFTR) mRNA were dosed with MEM media in the absence of serum (N=4 replicate wells). LNP transfected cells were incubated for 5 h, followed by media removal and supplementation with complete MEM media. Cells were further incubated in complete MEM media overnight (24 h). Following 24 hr incubation, the cells were fixed with PFA and processed for immunofluorescence (IF) using an anti-CFTR rabbit monoclonal antibody. Briefly, the cells were permeabilized with 0.5% TX-100 for 10 min, blocked with 3% bovine serum albumin (BSA)+PBST for 1 hr at room temperature, and incubated with primary anti-CFTR monoclonal antibody overnight at 4° C. Following primary antibody incubation, the cells were incubated with Alexa 488 conjugated secondary antibody for 30 min, and stained with DAPI and HCS CellMask Blue stain. Between different incubation steps the cells were either washed with PBS or PBST. Cells were imaged using Opera Phoenix spinning disk confocal microscope (PerkinElmer), and CFTR protein expression was detected using the 488 nm channel. The image analysis was performed in Harmony 4.9, with main analysis output being CFTR intensity per cell. The results shown in Table 3a show fold-change in CFTR signal intensity per cell compared to buffer (PBS) control (nanoparticle composition: IL1:Lipid Amine:DSPC:Chol:PL1). The results shown in Table 3b show fold-change in CFTR signal intensity per cell compared to buffer (PBS) control (nanoparticle composition: IL1:Lipid Amine:DPPC:Chol:PL1).

SMILES: CC(C)CCC[C@@H](C)[C@H]1CC[C@H]2[C@@H]3CC=C4C[C@@H](OC(=O)CCC(=O)N5CCN(C)CCN(C)CC5)CC[C@]4(C)[C@H]3CC[C@]12C [SA52, (3S,8S,9S,10R,13R,14S,17R)-10,13-Dimethyl-17-((R)-6-methylheptan-2-yl)-2,3,4,7,8,9,10,11,12,13,14,15,16,17-tetradecahydro-1H-cyclopenta[a]phenanthren-3-yl 4-(4,7-dimethyl-1,4,7-triazonan-1-yl)-4-oxobutanoate]
- Average fold-change in CFTR signal intensity per cell compared to buffer control ± standard deviation (HeLa cells [1]): 3.4 ± 0.5 fold-change
- Diameter ([2]; CFTR mRNA nanoparticle with lipid amine (IL1:DSPC:cholesterol:PEG-DMG-2K core), DLS): 72.4 nm
- PDI ([2]; CFTR mRNA nanoparticle with lipid amine, DLS): 0.11
- % Encapsulation (Ribogreen) ([2]; CFTR mRNA nanoparticle with lipid amine, Ribogreen assay): 96.6%
- Average fold-change in CFTR signal intensity per cell ± standard deviation (HeLa cells [3]; LNP IL1:Lipid Amine:DPPC:Chol:PL1 with CFTR mRNA): 9.3 ± 1.2 fold-change
- Average fold-change in CFTR signal intensity per cell ± standard deviation (HeLa cells [3]; LNP IL1:Lipid Amine:DSPC:Chol:PL1 with CFTR mRNA): 2.3 ± 0.1 fold-change

Reference: patent US20250281419A1, “LIPID AMINES” (ModernaTX, Inc., priority 2021, published 2025)
